Entries after “also recorded” stand apart in the source; their conditions may differ.
How the values were obtained:
Format in all cases: cell-based, human
[1] = system: global chromatin modifications in peritoneal subclone (A38Per), normal cells (HPDE, fibroblast) and local-regional PDACs; assay: Western blots of histone modifications, peritoneal subclone, normal cells and local-regional PDACs
Protocol: Histones were acid extracted as described and western blots performed on 3.5 ug histones, which were checked by Ponceau stains prior to western blot to ensure equal loading. Densitometry was performed with ImageJ software. RNA was extracted with Trizol reagent (Life Technologies) and isopropanol precipitated. Genomic DNA was purified with MasterPure DNA extraction reagents (Epicenter). Immunohistochemistry, H&E staining, and immunofluorescence on formalin-fixed, paraffin-embedded (FFPE) tissue microarray sections (TMAs) were performed according to standard procedures.
(§1) RNAi experiments were performed with siRNA transfections (Oligofectamine, Life Technologies) using negative control siRNA (Sigma, SIC001) and pre-designed siRNA oligonucleotides against indicated genes in parallel (Sigma, PGD: SASI_Hs02 00334150, CDH2: SASI_Hs01_00153995, TOP2B: SASI_Hs02_00311874). siRNAs against mutant KRAS^G12V (CUACGCCAACAGCUCCAAC) (SEQ ID NO:1) were custom designed. Cells were incubated with siRNAs for 4 days after transfection and harvested. For drug treatments in 2-D, cells were grown to 70-80% confluency and treated for 3 days with 250 uM 6AN or DMSO negative control.

[2] = system: distant metastatic and primary tumor precursor subclones; assay: 3-D matrigel tumor forming assay, distant metastatic subclones
Protocol: as §1
3-D matrigel assays were adapted from Cheung et al. (Control of alveolar differentiation by the lineage transcription factors GATA6 and HOPX inhibits lung adenocarcinoma metastasis. Cancer Cell 23, 725-38 (2013)). […] Well-formed tumors were then counted and representative photographs taken with an EVOS instrument. 3-D suspension tumorsphere assays were performed with 20,000 starting cells/well in ultra-low attachment 6 well plates as described, and tumors counted/photographed after at least 7 days of tumor growth.

[3] = system: H3K9Me2, H3K27Ac, H3K27Me3 in LOCK regions of A38Lg; assay: ChIP-seq on control (DMSO) and 6AN-treated A38Lg cells; details: DMSO vs. 6AN
Protocol: as §1
Tests for statistical significance (two-tailed students t-test) were performed on data collected from technical replicate (performed in parallel at the same time) or biological replicate (performed at different times) experiments as indicated in the figure legends using excel software for western blot densitometry, MTT assays, and tumor measurements. Whole genome bisulfite sequencing and RNA-seq were performed with HiSeq instruments (Illumina) as described in Hansen et al. (Increased methylation variation in epigenetic domains across cancer types. Nat Genet 43, 768-75 (2011)). ChIP assays were performed as previously described for fixed cells with sonication. For ChIP-qPCR, equal amounts of paired input/IP DNA were amplified by real-time PCR (Roche LightCycler96) and fold enrichments calculated. Primer sequences are listed in Supplementary Table 11. […] IP sequencing reads were normalized to their corresponding inputs. […]
Chip-seq data processing. For 46 bp paired-end Illumina HiSeq2000 sequencing data, reads were aligned against human genome (hg19) using BWA with default parameters as described in Li et al. (Fast and accurate short read alignment with Burrows-Wheeler transform. Bioinformatics 25, 1754-60 (2009)). After alignment, duplicate reads were removed and only uniquely aligned reads were kept for further analysis. For 48 bp single-end Solid sequencing data, reads were aligned using Bowtie^7 with default parameters and only uniquely aligned reads were kept for further analysis. […]

[4] = system: distant metastatic subclones; assay: Organotypic tumor forming assay (3D organotypic stromal cultures)
Protocol: Organotypic tumor forming assays were adapted from Ridky et al. (P.A. Invasive three-dimensional organotypic neoplasia from multiple normal human epithelia. Nat Med 16, 1450-5 (2010)) and Andl et al. (Epidermal growth factor receptor mediates increased cell proliferation, migration, and aggregation in esophageal keratinocytes in vitro and in vivo. J Biol Chem 278, 1824-30 (2003)). Briefly, 6 well permeable transwell plates (Costar 3414) were overlayed with 1 mL type 1 collagen containing 10×DMEM (acellular layer). Human dermal fibroblasts (ATCC) were suspended (12×10^6 cells/mL) in a mixture of ice cold 10×DMEM, 10% FBS, 52.5% collagen, and 17.5% matrigel (cellular layer), thoroughly mixed, and 2 mL/well plated over the acellular layer. The mixture was allowed to partially solidify for approximately 15 minutes at 37° C., followed by triplicate injection of 1×10^6 PDAC (suspended in 20 ul DMEM) cells into the cellular layer. Cells were incubated for 24 hours in fibroblast growth media above and below the inserts to initiate contraction of the discs. […] Discs were harvested, fixed overnight in 10% formalin, […], and stained with H&E. Tumors were photographed and measured with an Olympus BX53 microscope using cellSens Standard software.

## NC(=O)c1ccc(N)nc1 [6AN, 6-aminonicotinamide]
[1]; normal (HPDE, fibroblast) or local-regional PDAC samples
  histone modifications, western blot densitometry: minimal effects; also recorded: did not show such changes
[1]; peritoneal subclone A38Per
  effect on global chromatin modifications (western blots): no effect
[2]
  tumor formation in 3D matrigel assays: selectively and strongly blocked tumor formation; also recorded: ablated tumor formation
[3]
  H3K27Ac at genes repressed from LOCKs (ChIP-seq): reduced
  LOCK-wide H3K9Me2 from reprogrammed regions (ChIP-seq): quantitative increase
  levels of H3K27Me3 (ChIP-seq): remained stable; also recorded: unchanged
[4]
  tumor formation after injection into 3D organotypic stromal cultures: selectively and strongly blocked tumor formation; also recorded: blocked
